Assay [1] deals with COL17A1. The assay is described as follows: COL17A1 expression in human epidermal keratinocytes by high content imaging (HCS). The format is cell-based. The conditions noted are these: human epidermal keratinocytes, 48 hours after addition of reagents. The protocol:
The present inventors further searched for substances that induce or maintain the expression of COL17A1. Human epidermal keratinocytes were seeded in 384-well plates, cultured for 48 hours after addition of reagents, immunostained with an anti-COL17A1 antibody and a fluorescently labeled secondary antibody, and then the fluorescence intensity per cell was detected using a high content imaging system (HCS: High Content Screening). In addition to cell counting with DAPI, the expression level of COL17A1 was quantified.

For assay [2], the system named is human epidermal keratinocytes. The assay is described as follows: Colony formation assay using human epidermal keratinocytes. It is filed as cell-based. An excerpt:
To test whether COL17A1-mediated SCD maintains clonal proliferation of epidermal stem cell clones, the present inventors used a colony formation assay, which is an in vitro assay said to be the gold standard for assessing the self-renewal ability of epidermal stem cells, including cells in the tail epidermis.

[3] abbreviates: Table 1, fluorescence intensity per cell.

Structures can show the parent of a compound that is named as a salt.

On to `CC(CN(C)C)CN1c2ccccc2CCc2ccccc21` (stereo not drawn) [Trimipramine Maleate], for which the “COL17A1 expression level (control ratio)” value in assay [1] (setting [3]) is given as “⊚⊚ (two double circles (⊚⊚) in the COL17A1 expression level (control ratio) represent a 2.0-fold or greater increase in the expression level)”. Further, in assay [2] (Table 1), the “Colony area (control ratio)” value is “⊚ (one double circle (⊚) indicates maintenance of 1.0-1.2-fold)” and the “Colony number (control ratio)” value is given as “⊚ (one double circle (⊚) indicates maintenance of 1.0-1.2-fold)”.

For `O=c1cc(-c2ccc(O)cc2)oc2cc(O)cc(O)c12` [Apigenin], in assay [1] (setting [3]), the “COL17A1 expression level (control ratio)” value is given as “⊚⊚ (two double circles (⊚⊚) in the COL17A1 expression level (control ratio) represent a 2.0-fold or greater increase in the expression level)”. In addition, in assay [2] (Table 1), the “Colony area (control ratio)” value is given as “○” and the “Colony number (control ratio)” value was “○”.

Turning to `CC(CCc1ccc(O)cc1)NCCc1ccc(O)c(O)c1` (stereo not drawn) [Dobutamine Hydrochloride], the “COL17A1 expression level (control ratio)” value in assay [1] (setting [3]) is “⊚⊚ (two double circles (⊚⊚) in the COL17A1 expression level (control ratio) represent a 2.0-fold or greater increase in the expression level)”. For the same molecule, in assay [2] (Table 1), the “Colony area (control ratio)” value is listed as “⊚ (one double circle (⊚) indicates maintenance of 1.0-1.2-fold)” and the “Colony number (control ratio)” value is reported as “⊚ (one double circle (⊚) indicates maintenance of 1.0-1.2-fold)”.

As for `COc1ccc(-c2coc3cc(O)cc(O)c3c2=O)cc1` [Biochanin A], the “COL17A1 expression level (control ratio)” value in assay [1] (setting [3]) is “⊚ (one double circle (⊚) represents a 1.2-fold or greater increase)”. Moreover, in assay [2] (Table 1), the “Colony area (control ratio)” value is “○” and the “Colony number (control ratio)” value is listed as “○”.

With `CCCCc1oc2ccccc2c1C(=O)c1cc(I)c(OCCN(CC)CC)c(I)c1` [Amiodarone Hydrochloride], the “COL17A1 expression level (control ratio)” value in assay [1] (setting [3]) was “⊚⊚ (two double circles (⊚⊚) in the COL17A1 expression level (control ratio) represent a 2.0-fold or greater increase in the expression level)”. For the same molecule, in assay [2] (Table 1), the “Colony area (control ratio)” value is “○” and the “Colony number (control ratio)” value is on record as “⊚ (one double circle (⊚) indicates maintenance of 1.0-1.2-fold)”.

For the molecule `C[C@H]1CNCCCN1S(=O)(=O)c1cccc2cncc(F)c12` [Ripasudil], in assay [1] (setting [3]), the “COL17A1 expression level (control ratio)” value is recorded as “⊚⊚ (two double circles (⊚⊚) in the COL17A1 expression level (control ratio) represent a 2.0-fold or greater increase in the expression level)”. In assay [2] (Table 1), the “Colony area (control ratio)” value is listed as “⊚ (one double circle (⊚) indicates maintenance of 1.0-1.2-fold)” and the “Colony number (control ratio)” value was “⊚ (one double circle (⊚) indicates maintenance of 1.0-1.2-fold)”.

`N=C(N)NN` [Aminoguanidine]: the “COL17A1 expression level (control ratio)” value in assay [1] (setting [3]) is given as “○ (one circle (0) represents a 1.0-1.2-fold maintenance)”. Further, in assay [2] (Table 1), the “Colony area (control ratio)” value was “○” and the “Colony number (control ratio)” value is reported as “○”.

In the case of `OC1(c2ccc(Cl)c(C(F)(F)F)c2)CCN(CCCC(c2ccc(F)cc2)c2ccc(F)cc2)CC1` [Penfluridol], the “COL17A1 expression level (control ratio)” value in assay [1] (setting [3]) is recorded as “⊚ (one double circle (⊚) represents a 1.2-fold or greater increase)”. For the same molecule, in assay [2] (Table 1), the “Colony area (control ratio)” value is “⊚ (one double circle (⊚) indicates maintenance of 1.0-1.2-fold)” and the “Colony number (control ratio)” value is given as “⊚ (one double circle (⊚) indicates maintenance of 1.0-1.2-fold)”.

In the case of Helenin, in assay [1] (Table 2), the “COL17A1 expression level (control ratio)” value was “⊚⊚ (two double circles (⊚⊚) in the COL17A1 expression level (control ratio) represent a 2.0-fold or greater increase in the expression level)”. Also, in assay [2] (Table 2), the “Colony area (control ratio)” value is reported as “⊚ (one double circle (⊚) indicates maintenance of 1.0-1.2-fold)” and the “Colony number (control ratio)” value is on record as “⊚ (one double circle (⊚) indicates maintenance of 1.0-1.2-fold)”.

For the molecule `Fc1ccc(C(c2ccc(F)cc2)N2CCN(C/C=C/c3ccccc3)CC2)cc1` [Flunarizine Hydrochloride], the “COL17A1 expression level (control ratio)” value in assay [1] (setting [3]) was “⊚ (one double circle (⊚) represents a 1.2-fold or greater increase)”. In assay [2] (Table 1), the “Colony area (control ratio)” value is listed as “⊚ (one double circle (⊚) indicates maintenance of 1.0-1.2-fold)” and the “Colony number (control ratio)” value was “⊚ (one double circle (⊚) indicates maintenance of 1.0-1.2-fold)”.

For `CC(C)=CCC1=C(O)C(=O)c2ccccc2C1=O` [Lapachol], in assay [1] (Table 2), the “COL17A1 expression level (control ratio)” value was “⊚⊚ (two double circles (⊚⊚) in the COL17A1 expression level (control ratio) represent a 2.0-fold or greater increase in the expression level)”. For the same molecule, in assay [2] (Table 2), the “Colony area (control ratio)” value is recorded as “⊚ (one double circle (⊚) indicates maintenance of 1.0-1.2-fold)” and the “Colony number (control ratio)” value is on record as “⊚ (one double circle (⊚) indicates maintenance of 1.0-1.2-fold)”.

`O=S(=O)(c1cccc2cnccc12)N1CCCNCC1` [Fasudil (HA-1077), Fasudil]: in assay [1] (setting [3]), the “COL17A1 expression level (control ratio)” value is given as “⊚⊚ (two double circles (⊚⊚) in the COL17A1 expression level (control ratio) represent a 2.0-fold or greater increase in the expression level)”. Besides, in assay [2] (Table 1), the “Colony area (control ratio)” value is given as “⊚ (one double circle (⊚) indicates maintenance of 1.0-1.2-fold)” and the “Colony number (control ratio)” value is listed as “⊚ (one double circle (⊚) indicates maintenance of 1.0-1.2-fold)”.

`O=c1c2ccccc2[se]n1-c1ccccc1` [Ebselen]: the “COL17A1 expression level (control ratio)” value in assay [1] (setting [3]) was “⊚ (one double circle (⊚) represents a 1.2-fold or greater increase)”. Further, in assay [2] (Table 1), the “Colony area (control ratio)” value is “⊚ (one double circle (⊚) indicates maintenance of 1.0-1.2-fold)” and the “Colony number (control ratio)” value is reported as “⊚ (one double circle (⊚) indicates maintenance of 1.0-1.2-fold)”.

(Values after US20260256870A1, “SKIN COMPOSITION” (Eaderm Co., Ltd., priority 2019, published 2026).)
